According to paper PMC9301969 (ACS Omega, 2022):

Target: human serum albumin (HSA, nonglycated) (Homo sapiens, UniProt P02768)
Assay: fluorescence polarization
Assay type: binding

Chain of human serum albumin (HSA, nonglycated) (P02768 25-609): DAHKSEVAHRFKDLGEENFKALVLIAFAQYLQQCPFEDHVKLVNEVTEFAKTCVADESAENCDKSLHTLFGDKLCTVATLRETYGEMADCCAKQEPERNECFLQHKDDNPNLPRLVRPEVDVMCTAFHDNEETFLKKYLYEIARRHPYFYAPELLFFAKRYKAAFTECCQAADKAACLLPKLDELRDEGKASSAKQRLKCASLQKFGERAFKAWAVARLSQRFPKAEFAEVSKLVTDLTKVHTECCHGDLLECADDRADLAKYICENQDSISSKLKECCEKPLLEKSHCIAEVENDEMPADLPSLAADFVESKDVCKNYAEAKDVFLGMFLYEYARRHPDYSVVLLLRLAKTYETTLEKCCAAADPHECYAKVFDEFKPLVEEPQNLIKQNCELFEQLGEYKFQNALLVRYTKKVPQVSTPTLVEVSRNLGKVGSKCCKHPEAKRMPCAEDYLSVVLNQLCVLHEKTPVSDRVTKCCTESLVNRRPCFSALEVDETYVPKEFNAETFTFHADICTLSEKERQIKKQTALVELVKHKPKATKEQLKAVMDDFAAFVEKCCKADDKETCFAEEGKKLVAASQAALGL

Kd: 2 µM
Compound: O=C(O)CCN(Cc1ccc(C(F)(F)F)cc1B(O)O)Cc1c2ccccc2c(CN(CCC(=O)O)Cc2ccc(C(F)(F)F)cc2B(O)O)c2ccccc12 [compound 8, 3,3′-((anthracene-9,10-diylbis(methylene))bis((2-borono-4-(trifluoromethyl)benzyl)azanediyl))dipropionic acid]
